Measured values reported in US12195434B2, “Process for the preparation of a chiral prostaglandin enol intermediate and intermediate compounds useful in the process” (EUROAPI HUNGARY LIMITED LIABILITY COMPANY, priority 2019, dated 2025).

Assay: solubility of the PPB-enone isomers in crystallization solvents
Assay type: physicochemical
Description: The solubility (g/100 ml) of the PPB-enone isomers in some of the solvents with which crystallization was attempted is shown below: […]

solubility (DIPE, 23° C.)	solubility (DIPE, Reflux)	solubility (EtOH, 23° C.)	solubility (EtOH, Reflux) [g/100 ml]	solubility (MeOH, 23° C.)	solubility (MeOH, Reflux) [g/100 ml]	solubility (TBME, 23° C.)	solubility (TBME, Reflux) [g/100 ml]	solubility (iPrOH, 23° C.)	solubility (iPrOH, Reflux) [g/100 ml]	SMILES
in-	in-	0.43 g/100 ml	4.00	0.45 g/100 ml	5.00	0.71 g/100 ml	8.00	0.18 g/100 ml	2.22	Cc1cccc([C@@H](C)C(=O)/C=C/[C@@H]2[C@H]3CC(=O)O[C@H]3C[C@H]2OC(=O)c2ccc(-c3ccccc3)cc2)c1 [16-(R)-PPB-enone, [(3aR,4R,5R,6aS)-4-[(E,4R)-4-(m-tolyl)-3-oxo-pent-1-enyl]-2-oxo-3,3a,4,5,6,6a-hexahydrocyclopenta[b]furan-5-yl] 4-phenylbenzoate]
insoluble	in-	insoluble	0.77	insoluble	0.91	0.14 g/100 ml	0.33	insoluble	0.80	Cc1cccc(C(C)C(=O)/C=C/[C@@H]2[C@H]3CC(=O)O[C@H]3C[C@H]2OC(=O)c2ccc(-c3ccccc3)cc2)c1 (stereo partly drawn) [16-(R,S)-PPB-enone, [(3aR,4R,5R,6aS)-4-[(E)-4-(m-tolyl)-3-oxo-pent-1-enyl]-2-oxo-3,3a,4,5,6,6a-hexahydrocyclopenta[b]furan-5-yl] 4-phenylbenzoate]
insoluble	0.2 g/100 ml	insoluble	0.33	insoluble	0.33	insoluble	0.13	insoluble	0.29	Cc1cccc([C@H](C)C(=O)/C=C/[C@@H]2[C@H]3CC(=O)O[C@H]3C[C@H]2OC(=O)c2ccc(-c3ccccc3)cc2)c1 [16-(S)-PPB-enone, [(3aR,4R,5R,6aS)-4-[(E,4S)-4-(m-tolyl)-3-oxo-pent-1-enyl]-2-oxo-3,3a,4,5,6,6a-hexahydrocyclopenta[b]furan-5-yl] 4-phenylbenzoate]
